From patent US8815879B2, “Substituted 4-(selenophen-2(or-3)-ylamino)pyrimidine compounds and methods of use thereof” (Kasina Laila Innova Pharmaceuticals Private Limited, priority 2010, dated 2014)
Structures can show the parent of a compound that is named as a salt. Where two headings read alike, the source gives them in different places.

Legend:
[1] = tested on: human prostate DU145 cells; assay: MTT based cell proliferation assay, DU145; conditions: for inhibition at 10 µg/mL: read-out: Cell Proliferation Inhibition in DU145 (Prostate carcinoma), % at highest screening dose; for IC50: read-out: Cell Proliferation Inhibition in DU145 (Prostate carcinoma), IC50
Procedure: (§1) MTT [3-(4,5-dimethylthiazol-2-yl)-2,5-diphenyltetrazolium bromide] incorporation based cell proliferation assay was performed using standard procedure. […] The assay was carried out according to the instructions provided by the vendor. […] Vehicle control culture wells received only a maximum of 0.5% DMSO. Thereafter, 0.5 mg/ml of MTT reagent was added to each well and the microplate was incubated further for 4 h at 37° C. in presence of 5% CO2. Finally, the cells were solubilized by adding solubilizing solution and allowed to incubate at 37° C. overnight. After complete solubilization of the formazan crystals the absorbance was read at 540 nm in a microplate reader (BioRad, USA).
(§2) The evaluation of cell proliferation inhibitory activities of the compounds was done in two phases—(1) Screening, and (2) half-maximal inhibitory concentration (IC50) determination. In the screening phase, the cells were treated with three different concentrations e.g. 1, 5 and 10 μg/ml.

[2] = tested on: human lung carcinoma A549 cells; assay: MTT based cell proliferation assay, A549; conditions: for inhibition at 10 µg/mL / IC50: Homo sapiens, A549, 72 h; for inhibition at 10 µg/mL: read-out: Cell Proliferation Inhibition in A549 (Lung carcinoma), % at highest screening dose; for IC50: read-out: Cell Proliferation Inhibition in A549 (Lung carcinoma), IC50
Procedure: as §1, §2

[3] = tested on: human colorectal carcinoma HT29 cells; assay: MTT based cell proliferation assay, HT29; conditions: for IC50: read-out: Cell Proliferation Inhibition in HT29 (Colon carcinoma), IC50; for inhibition at 10 µg/mL: read-out: Cell Proliferation Inhibition in HT29 (Colon carcinoma), % at highest screening dose
Procedure: as §1, §2

## COc1cc2ncnc(Nc3cc(C(C)(C)C)[se]c3[N+](=O)[O-])c2cc1OCCCN1CCOCC1 [Compound 4, [5-(tert-butyl)-2-nitroselenophen-3-yl][7-methoxy-6-(3-morpholino-propoxy)quinazolin-4-yl]amine]
[1]; Homo sapiens, DU-145, 72 h
  inhibition at 10 µg/mL: 9.85%
[2]
  inhibition at 10 µg/mL: 10.4%
[3]; Homo sapiens, HT-29, 72 h
  IC50: 19.3 µM

## COc1cc2c(Nc3cc(C(C)(C)C)[se]c3C(N)=O)ncnc2cc1OCCCN1CCOCC1 (as salt: HCl) [Compound 5, 3-(7-(3-morpholinopropoxy)-6-methoxyquinazolin-4-ylamino)-5-tert-butylselenophene-2-carboxamide]
other
  melting point: 262 to 264 °C

## COc1cc2nc(C)nc(Nc3cc(C(C)(C)C)[se]c3C(N)=O)c2cc1OC (as salt: HCl) [Compound 24, 3-(6,7-dimethoxy-2-methylquinazolin-4-ylamino)-5-tert-butylselenophene-2-carboxamide]
other
  melting point: 282 to 284 °C

## CCc1c(C)[se]c2ncnc(Nc3cc(C(C)(C)C)[se]c3C(N)=O)c12 [Compound 19, 3-(5-ethyl-6-methylselenopheno[2,3-d]pyrimidin-4-ylamino)-5-tert-butylselenophene-2-carboxamide]
[1]; Homo sapiens, DU-145, 72 h
  inhibition at 10 µg/mL: 6.68%
[2]
  inhibition at 10 µg/mL: 7.86%
[3]; Homo sapiens, HT-29, 72 h
  inhibition at 10 µg/mL: 43.9%

## CC(C)(C)c1cc(Nc2ncnc3ccc(N)cc23)c(C(N)=O)[se]1 [Compound 8, 3-(6-aminoquinazolin-4-ylamino)-5-tert-butylselenophene-2-carboxamide]
[1]; Homo sapiens, DU-145, 72 h
  inhibition at 10 µg/mL: 15.7%
[2]
  inhibition at 10 µg/mL: 7.6%
[3]; Homo sapiens, HT-29, 72 h
  inhibition at 10 µg/mL: 81.9%

## COCCOc1cc2ncnc(Nc3cc(C(C)(C)C)[se]c3C(N)=O)c2cc1OCCOC (as salt: HCl) [Compound 6, 3-(6,7-bis(2-methoxyethoxy)quinazolin-4-ylamino)-5-tert-butylselenophene-2-carboxamide]
other
  melting point: 224 to 226 °C

## COc1cc2ncnc(Nc3cc(C(C)(C)C)[se]c3[N+](=O)[O-])c2cc1OCCCN1CCOCC1 (as salt: HCl) [Compound 4, [5-(tert-butyl)-2-nitroselenophen-3-yl][7-methoxy-6-(3-morpholino-propoxy)quinazolin-4-yl]amine]
other
  melting point: 240 to 242 °C

## COc1cc2nc(C)nc(Nc3cc(C(C)(C)C)[se]c3C(N)=O)c2cc1OC [Compound 24, 3-(6,7-dimethoxy-2-methylquinazolin-4-ylamino)-5-tert-butylselenophene-2-carboxamide]
[1]; Homo sapiens, DU-145, 72 h
  inhibition at 10 µg/mL: 87.7%
[2]
  inhibition at 10 µg/mL: 15.1%
[3]; Homo sapiens, HT-29, 72 h
  IC50: 10.6 µM

## CC(C)(C)c1cc(Nc2ncnc3cc(C(C)(C)C)[se]c23)c(C(N)=O)[se]1 [Compound 18, 3-(6-tert-butylselenopheno[3,2-d]pyrimidin-4-ylamino)-5-tert-butylselenophene-2-carboxamide]
[1]; Homo sapiens, DU-145, 72 h
  inhibition at 10 µg/mL: 7.87%
[2]
  inhibition at 10 µg/mL: 2.18%
[3]; Homo sapiens, HT-29, 72 h
  inhibition at 10 µg/mL: 36.4%

## CCc1c(C)sc2ncnc(Nc3cc(C(C)(C)C)[se]c3C(N)=O)c12 (as salt: HCl) [Compound 13, 3-(5-ethyl-6-methylthiopheno[2,3-d]pyrimidin-4-ylamino)-5-tert-butylselenophene-2-carboxamide]
other
  melting point: 258 to 260 °C

## CCc1c(C)[se]c2ncnc(Nc3cc(C(C)(C)C)[se]c3C(N)=O)c12 (as salt: HCl) [Compound 19, 3-(5-ethyl-6-methylselenopheno[2,3-d]pyrimidin-4-ylamino)-5-tert-butylselenophene-2-carboxamide]
other
  melting point: 278 to 280 °C

## CSc1nc2ncnc(Nc3cc(C(C)(C)C)[se]c3C(N)=O)c2s1 [Compound 20, 3-(2-(methylthio)thiazolo[4,5-d]pyrimidin-7-ylamino)-5-tert-butylseleno-phene-2-carboxamide]
[1]; MTT, three days incubation
  IC50: 17.9 µM
[2]; at 10 μg/ml (highest dose tested in screening), micromolar equivalent printed in each cell, three days
  Cell Proliferation Inhibition in A549 (Lung carcinoma), % at highest screening dose: 1.28% at 23.42 μM
[3]; MTT, three days incubation
  IC50: 9.54 µM

## COc1cc2ncnc(N(CCCl)c3cc(C(C)(C)C)[se]c3C(N)=O)c2cc1OCCCN1CCOCC1 (as salt: HCl) [Compound 23, 3-(N-(6-(3-morpholinopropoxy)-7-methoxyquinazolin-4-yl)-N-(2-chloroethyl)amino)-5-tert-butylselenophene-2-carboxamide]
other
  melting point: 190 to 192 °C

## COc1cc2ncnc(Nc3cc(C(N)=O)[se]c3C)c2cc1OCCCN1CCOCC1 (as salt: HCl) [Compound 11, 4-(6-(3-morpholinopropoxy)-7-methoxyquinazolin-4-ylamino)-5-methylselenophene-2-carboxamide]
other
  melting point: 252 to 254 °C

## COc1cc2ncnc(Nc3cc(-c4ccccc4)[se]c3C(N)=O)c2cc1OCCCN1CCOCC1 [Compound 7, 3-(6-(3-morpholinopropoxy)-7-methoxyquinazolin-4-ylamino)-5-phenyl-selenophene-2-carboxamide]
[1]; Homo sapiens, DU-145, 72 h
  IC50: 5.84 µM
[2]
  IC50: 6.08 µM
[3]; Homo sapiens, HT-29, 72 h
  inhibition at 10 µg/mL: 85.8%

## CCc1c(C)sc2ncnc(Nc3cc(C(C)(C)C)[se]c3C(N)=O)c12 [Compound 13, 3-(5-ethyl-6-methylthiopheno[2,3-d]pyrimidin-4-ylamino)-5-tert-butylselenophene-2-carboxamide]
[1]; Homo sapiens, DU-145, 72 h
  inhibition at 10 µg/mL: 8.49%
[2]
  inhibition at 10 µg/mL: 5.68%
[3]; Homo sapiens, HT-29, 72 h
  inhibition at 10 µg/mL: 30.2%

## COC(=O)c1cc(Nc2nc(C)nc3cc(OC)c(OC)cc23)c(C)[se]1 [Compound 25, methyl 4-(6,7-dimethoxy-2-methylquinazolin-4-ylamino)-5-methylselenophene-2-carboxylate]
[1]; Homo sapiens, DU-145, 72 h
  inhibition at 10 µg/mL: 2.59%
[2]
  inhibition at 10 µg/mL: 2.95%
[3]; Homo sapiens, HT-29, 72 h
  inhibition at 10 µg/mL: 11.8%

## COc1cc2c(Nc3cc(C(C)(C)C)[se]c3C(N)=O)ncnc2cc1OCCCN1CCOCC1 [Compound 5, 3-(7-(3-morpholinopropoxy)-6-methoxyquinazolin-4-ylamino)-5-tert-butylselenophene-2-carboxamide]
[1]; Homo sapiens, DU-145, 72 h
  IC50: 3.9 µM
[1]; ratio of IC50 values
  potency in vitro compared to gefitinib (Iressa), DU145: several times better potency
[2]
  IC50: 4.6 µM
[2]; ratio of IC50 values
  potency in vitro compared to gefitinib (Iressa), A549: approximately four times
[3]; Homo sapiens, HT-29, 72 h
  IC50: 4.07 µM
[3]; ratio of IC50 values
  potency in vitro compared to gefitinib (Iressa), HT29: several times better potency

## COC(=O)c1cc(Nc2ncnc3cc(OC)c(OCCCN4CCOCC4)cc23)c(C)[se]1 [Compound 10, methyl 4-(6-(3-morpholinopropoxy)-7-methoxyquinazolin-4-ylamino)-5-methylselenophene-2-carboxylate]
[1]; Homo sapiens, DU-145, 72 h
  inhibition at 10 µg/mL: 21.4%
[2]
  inhibition at 10 µg/mL: 10.3%
[3]; Homo sapiens, HT-29, 72 h
  inhibition at 10 µg/mL: 6.11%

## COc1cc2nc(C)nc(Nc3cc(C(C)(C)C)[se]c3C(N)=O)c2cc1OCCCN1CCOCC1 [Compound 26, 3-(6-(3-morpholinopropoxy)-7-methoxy-2-methylquinazolin-4-ylamino)-5-tert-butylselenophene-2-carboxamide]
[1]; Homo sapiens, DU-145, 72 h
  IC50: 6.78 µM
[2]
  IC50: 11.7 µM
[3]; Homo sapiens, HT-29, 72 h
  IC50: 4.28 µM

## CC(C)(C)c1cc(Nc2ncnc3ccc(NC(=O)CCl)cc23)c(C(N)=O)[se]1 [Compound 9, 3-(6-(2-chloroacetamido)quinazolin-4-ylamino)-5-tert-butylselenophene-2-carboxamide]
[1]; Homo sapiens, DU-145, 72 h
  IC50: 8.51 µM
[2]
  inhibition at 10 µg/mL: 0.19%
[3]; Homo sapiens, HT-29, 72 h
  IC50: 9.24 µM

## COc1cc2ncnc(Nc3cc(C(N)=O)[se]c3C)c2cc1OCCCN1CCOCC1 [Compound 11, 4-(6-(3-morpholinopropoxy)-7-methoxyquinazolin-4-ylamino)-5-methylselenophene-2-carboxamide]
[1]; Homo sapiens, DU-145, 72 h
  inhibition at 10 µg/mL: 5.15%
[2]
  inhibition at 10 µg/mL: 16%
[3]; Homo sapiens, HT-29, 72 h
  inhibition at 10 µg/mL: 7.41%

## COc1cc2ncnc(Nc3cc(C(C)(C)C)[se]c3C(N)=O)c2cc1OCCCN1CCOCC1 [Compound 3, 3-(6-(3-morpholinopropoxy)-7-methoxyquinazolin-4-ylamino)-5-tert-butylselenophene-2-carboxamide]
[1]; Homo sapiens, DU-145, 72 h
  IC50: 7.39 µM
[2]
  IC50: 6.71 µM
[3]; Homo sapiens, HT-29, 72 h
  IC50: 5.12 µM

## COc1cc2ncnc(N(CCCl)c3cc(C(C)(C)C)[se]c3C(N)=O)c2cc1OCCCN1CCOCC1 [Compound 23, 3-(N-(6-(3-morpholinopropoxy)-7-methoxyquinazolin-4-yl)-N-(2-chloroethyl)amino)-5-tert-butylselenophene-2-carboxamide]
[1]; Homo sapiens, DU-145, 72 h
  inhibition at 10 µg/mL: 22.4%
[2]
  inhibition at 10 µg/mL: 3.28%
[3]; Homo sapiens, HT-29, 72 h
  inhibition at 10 µg/mL: 40.7%

## COc1cc2ncnc(N(C)c3cc(C(C)(C)C)[se]c3C(N)=O)c2cc1OCCCN1CCOCC1 [Compound 22, 3-(N-(6-(3-morpholinopropoxy)-7-methoxyquinazolin-4-yl)-N-methylamino)-5-tert-butylselenophene-2-carboxamide]
[1]; Homo sapiens, DU-145, 72 h
  inhibition at 10 µg/mL: 14.7%
[2]
  inhibition at 10 µg/mL: 3.93%
[3]; Homo sapiens, HT-29, 72 h
  inhibition at 10 µg/mL: 34.3%

## COCCOc1cc2ncnc(Nc3cc(C(C)(C)C)[se]c3C(N)=O)c2cc1OCCOC [Compound 6, 3-(6,7-bis(2-methoxyethoxy)quinazolin-4-ylamino)-5-tert-butylselenophene-2-carboxamide]
[1]; Homo sapiens, DU-145, 72 h
  inhibition at 10 µg/mL: 39.7%
[2]
  inhibition at 10 µg/mL: 5.09%
[3]; Homo sapiens, HT-29, 72 h
  inhibition at 10 µg/mL: 86.4%

## CC(C)(C)c1cc(Nc2ncnc3ncccc23)c(C(N)=O)[se]1 [Compound 12, 5-tert-butyl-3-(pyridino[2,3-d]pyrimidin-4-ylamino)selenophene-2-carboxamide]
[1]; Homo sapiens, DU-145, 72 h
  inhibition at 10 µg/mL: 9.18%
[2]
  inhibition at 10 µg/mL: 7%
[3]; Homo sapiens, HT-29, 72 h
  inhibition at 10 µg/mL: 6.75%

## COc1cc2c(Nc3cc(C(C)(C)C)[se]c3C(N)=O)ncnc2c(OC)c1OC [Compound 2, 3-(6,7,8-trimethoxyquinazolin-4-ylamino)-5-tert-butylselenophene-2-carboxamide]
[1]; Homo sapiens, DU-145, 72 h
  IC50: 5.98 µM
[2]
  IC50: 31.1 µM
[3]; Homo sapiens, HT-29, 72 h
  IC50: 19.3 µM
